Measurements published in patent publication US12371454B2, “Cyclic peptide compound having Kras inhibitory action” (priority 2019, dated 2025).
Positions of bridges follow the written chain, without caps; N, C: chain ends. Non-standard residues stand in square brackets, D forms with d. Residues, ends and D or L forms follow the SMILES beside them. *: point of attachment. hPhe(3-Cl-4-CF3) = N[C@@H](CCc1ccc(C(F)(F)F)c(Cl)c1)C(=O)O; NMePhe(4-Me) = CN[C@@H](Cc1ccc(C)cc1)C(=O)O; NMeGly(cPent) = CN[C@H](C(=O)O)C1CCCC1; Ala(cPent) = N[C@@H](CC1CCCC1)C(=O)O; Gly(cPent) = N[C@H](C(=O)O)C1CCCC1; NMeCha = CN[C@@H](CC1CCCCC1)C(=O)O; NMehLeu = CN[C@@H](CCC(C)C)C(=O)O; NMeCba = CN[C@@H](CC1CCC1)C(=O)O; NMeChg = CN[C@H](C(=O)O)C1CCCCC1; NMeD = CN[C@@H](CC(=O)O)C(=O)O; NMeL = CN[C@@H](CC(C)C)C(=O)O; NMeNle = CCCC[C@H](NC)C(=O)O; NMeV = CN[C@H](C(=O)O)C(C)C; NMeA = CN[C@@H](C)C(=O)O; Piperidide = C1CCN(*)CC1; Pyrrolidide = C1CCN(*)C1; Ac5c = NC1(C(=O)O)CCCC1; Aze = O=C(O)[C@@H]1CCN1; Ac4c = NC1(C(=O)O)CCC1; Sar = CNCC(=O)O

Tests used:
[1] = tested on: Human pancreatic cancer cell line AsPC-1; experiment: Measurement of AsPC-1 cell growth inhibition (AsPC-1 CGI); type: cell-based; conditions: 96 h
In short: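 AsPC-1 cells in 15% FBS RPMI-1640 were exposed to test compound for 96 hours at 37° C, with CellTiter-Glo as endpoint.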

[2] = target: T1, Kras and SOS1 (biotin-tagged human Kras loaded with GDP, His-tagged human SOS1) (Homo sapiens, UniProt P01116, G12D); experiment: Protein-protein interaction inhibition between Kras and SOS1 (KrasGl2D-SOS PPI) using AlphaScreen; type: binding; conditions: AlphaScreen; biotin-tagged human Kras loaded with GDP, His-tagged human SOS1; read-out: KRAS G12D-SOS PPI IC50
T1 construct: made in house; host or cells: E. coli (stated for Kras only)
T1 sequence (P01116 1-188 isoform P01116-2 G12D): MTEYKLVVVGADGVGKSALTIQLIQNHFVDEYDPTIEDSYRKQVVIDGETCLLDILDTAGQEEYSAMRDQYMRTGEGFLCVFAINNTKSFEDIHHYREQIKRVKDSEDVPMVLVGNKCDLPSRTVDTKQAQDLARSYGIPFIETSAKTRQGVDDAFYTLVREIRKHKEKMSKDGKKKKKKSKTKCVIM
In short: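 Donor beads (nickel) hold His-SOS1; acceptor beads (streptavidin) hold biotin-Kras bound to GDP. Signal measured at 520-620 nm following 680 nm excitation.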

| SMILES | IC50 [1] | IC50 [2] |
| --- | --- | --- |
| CC[C@H](C)[C@@H]1NC(=O)[C@H](CC(C)C)N(C)C(=O)C[C@@H](C(=O)N2CCCCC2)N(C)C(=O)[C@H](C2CCCCC2)N(C)C(=O)C2(CCCC2)NC(=O)[C@@H]2CCCN2C(=O)[C@H](CCc2ccc(C(F)(F)F)c(Cl)c2)NC(=O)CN(C)C(=O)[C@H](Cc2ccc(C)cc2)N(C)C(=O)CN(C)C(=O)CN(C)C1=O [Compound 1804] ([NMeL]I[Sar][Sar][NMePhe(4-Me)][Sar][hPhe(3-Cl-4-CF3)]P[Ac5c][NMeChg][NMeD]-Piperidide; lactam N-11) | 50 to 100 nM | 0.51 nM |
| CC[C@H](C)[C@@H]1NC(=O)[C@H](C(C)C)N(C)C(=O)C[C@@H](C(=O)N2CCCCC2)N(C)C(=O)[C@H](C2CCCCC2)N(C)C(=O)C2(CCCC2)NC(=O)[C@@H]2CCCN2C(=O)[C@H](CCc2ccc(C(F)(F)F)c(Cl)c2)NC(=O)CN(C)C(=O)[C@H](CC2CCCCC2)N(C)C(=O)CN(C)C(=O)CN(C)C1=O [Compound 1807] ([NMeV]I[Sar][Sar][NMeCha][Sar][hPhe(3-Cl-4-CF3)]P[Ac5c][NMeChg][NMeD]-Piperidide; lactam N-11) | 50 to 100 nM | 0.89 nM |
| CC[C@H](C)[C@@H]1NC(=O)[C@H](CC(C)C)N(C)C(=O)C[C@@H](C(=O)N(C)C)N(C)C(=O)[C@H](C(C)C)N(C)C(=O)C2(CCCC2)NC(=O)[C@@H]2CCCN2C(=O)[C@H](CCc2ccc(C(F)(F)F)c(Cl)c2)NC(=O)CN(C)C(=O)[C@H](CC2CCCCC2)N(C)C(=O)CN(C)C(=O)CN(C)C1=O [Compound 1812] ([NMeL]I[Sar][Sar][NMeCha][Sar][hPhe(3-Cl-4-CF3)]P[Ac5c][NMeV][NMeD]-NMe2; lactam N-11) | 50 to 100 nM | 0.56 nM |
| CC[C@H](C)[C@@H]1NC(=O)[C@H](CC(C)C)N(C)C(=O)C[C@@H](C(=O)N2CCCCC2)N(C)C(=O)[C@H](C2CCCCC2)N(C)C(=O)C2(CCCC2)NC(=O)[C@@H]2CCCN2C(=O)[C@H](CCc2ccc(C(F)(F)F)c(Cl)c2)NC(=O)CN(C)C(=O)[C@H](CC2CCC2)N(C)C(=O)CN(C)C(=O)CN(C)C1=O [Compound 1817] ([NMeL]I[Sar][Sar][NMeCba][Sar][hPhe(3-Cl-4-CF3)]P[Ac5c][NMeChg][NMeD]-Piperidide; lactam N-11) | 100 to 500 nM | 1.4 nM |
| CC[C@H](C)[C@@H]1NC(=O)[C@H](CC(C)C)N(C)C(=O)C[C@@H](C(=O)N2CCCCC2)N(C)C(=O)[C@H](C2CCCCC2)N(C)C(=O)C2(CCC2)NC(=O)[C@@H]2CCCN2C(=O)[C@H](CCc2ccc(C(F)(F)F)c(Cl)c2)NC(=O)CN(C)C(=O)[C@H](CC2CCCCC2)N(C)C(=O)CN(C)C(=O)CN(C)C1=O [Compound 1821] ([NMeL]I[Sar][Sar][NMeCha][Sar][hPhe(3-Cl-4-CF3)]P[Ac4c][NMeChg][NMeD]-Piperidide; lactam N-11) | 20 to 50 nM | 0.99 nM |
| CC(C)C[C@H]1C(=O)N[C@@H](C2CCCC2)C(=O)N(C)CC(=O)N(C)CC(=O)N(C)[C@@H](CC2CCCCC2)C(=O)N(C)CC(=O)N[C@@H](CCc2ccc(C(F)(F)F)c(Cl)c2)C(=O)N2CCC[C@H]2C(=O)NC2(CCCC2)C(=O)N(C)[C@@H](C2CCCCC2)C(=O)N(C)[C@H](C(=O)N2CCCCC2)CC(=O)N1C [Compound 1824] ([NMeL][Gly(cPent)][Sar][Sar][NMeCha][Sar][hPhe(3-Cl-4-CF3)]P[Ac5c][NMeChg][NMeD]-Piperidide; lactam N-11) | 50 to 100 nM | 0.75 nM |
| CC[C@H](C)[C@@H]1NC(=O)[C@H](CC(C)C)N(C)C(=O)C[C@@H](C(=O)N2CCCCC2)N(C)C(=O)[C@H](C(C)C)N(C)C(=O)C2(CCCC2)NC(=O)[C@@H]2CCCN2C(=O)[C@H](CCc2ccc(C(F)(F)F)c(Cl)c2)NC(=O)CN(C)C(=O)[C@H](C2CCCC2)N(C)C(=O)[C@@H]2CCN2C(=O)[C@H](C)N(C)C1=O [Compound 1825] ([NMeL]I[NMeA][Aze][NMeGly(cPent)][Sar][hPhe(3-Cl-4-CF3)]P[Ac5c][NMeV][NMeD]-Piperidide; lactam N-11) | 100 to 500 nM | 3.4 nM |
| CC[C@H](C)[C@@H]1NC(=O)[C@H](CC(C)C)N(C)C(=O)C[C@@H](C(=O)N2CCCCC2)N(C)C(=O)[C@H](C2CCCCC2)N(C)C(=O)C2(CCCC2)NC(=O)[C@@H]2CCCN2C(=O)[C@H](CCc2ccc(C(F)(F)F)c(Cl)c2)NC(=O)CN(C)C(=O)[C@H](C(C)C)N(C)C(=O)CN(C)C(=O)CN(C)C1=O [Compound 1829] ([NMeL]I[Sar][Sar][NMeV][Sar][hPhe(3-Cl-4-CF3)]P[Ac5c][NMeChg][NMeD]-Piperidide; lactam N-11) | 100 to 500 nM | 1.5 nM |
| CC[C@H](C)[C@@H]1NC(=O)[C@H](CC(C)C)N(C)C(=O)C[C@@H](C(=O)N2CCCCC2)N(C)C(=O)[C@H](C2CCCCC2)N(C)C(=O)C2(CCCC2)NC(=O)[C@@H]2CCCN2C(=O)[C@H](CCc2ccc(C(F)(F)F)c(Cl)c2)NC(=O)CN(C)C(=O)[C@H](CCC(C)C)N(C)C(=O)CN(C)C(=O)CN(C)C1=O [Compound 1830] ([NMeL]I[Sar][Sar][NMehLeu][Sar][hPhe(3-Cl-4-CF3)]P[Ac5c][NMeChg][NMeD]-Piperidide; lactam N-11) | 100 to 500 nM | 1.6 nM |
| CCCC[C@H]1C(=O)N(C)CC(=O)N[C@@H](CCc2ccc(C(F)(F)F)c(Cl)c2)C(=O)N2CCC[C@H]2C(=O)NC2(CCCC2)C(=O)N(C)[C@@H](C2CCCCC2)C(=O)N(C)[C@H](C(=O)N2CCCCC2)CC(=O)N(C)[C@@H](CC(C)C)C(=O)N[C@@H]([C@@H](C)CC)C(=O)N(C)CC(=O)N(C)CC(=O)N1C [Compound 1832] ([NMeL]I[Sar][Sar][NMeNle][Sar][hPhe(3-Cl-4-CF3)]P[Ac5c][NMeChg][NMeD]-Piperidide; lactam N-11) | 100 to 500 nM | 1 nM |
| CC[C@H](C)[C@@H]1NC(=O)[C@H](C2CCCC2)N(C)C(=O)C[C@@H](C(=O)N2CCCCC2)N(C)C(=O)[C@H](C2CCCCC2)N(C)C(=O)C2(CCCC2)NC(=O)[C@@H]2CCCN2C(=O)[C@H](CCc2ccc(C(F)(F)F)c(Cl)c2)NC(=O)CN(C)C(=O)[C@H](CC2CCCCC2)N(C)C(=O)CN(C)C(=O)CN(C)C1=O [Compound 1835] ([NMeGly(cPent)]I[Sar][Sar][NMeCha][Sar][hPhe(3-Cl-4-CF3)]P[Ac5c][NMeChg][NMeD]-Piperidide; lactam N-11) | 50 to 100 nM | 1.1 nM |
| CC(C)C[C@H]1C(=O)N[C@@H](CC2CCCC2)C(=O)N(C)CC(=O)N(C)CC(=O)N(C)[C@@H](CC2CCCCC2)C(=O)N(C)CC(=O)N[C@@H](CCc2ccc(C(F)(F)F)c(Cl)c2)C(=O)N2CCC[C@H]2C(=O)NC2(CCCC2)C(=O)N(C)[C@@H](C2CCCCC2)C(=O)N(C)[C@H](C(=O)N2CCCCC2)CC(=O)N1C [Compound 1838] ([NMeL][Ala(cPent)][Sar][Sar][NMeCha][Sar][hPhe(3-Cl-4-CF3)]P[Ac5c][NMeChg][NMeD]-Piperidide; lactam N-11) | 100 to 500 nM | 2.6 nM |
| CC[C@H](C)[C@@H]1NC(=O)[C@H](CC(C)C)N(C)C(=O)C[C@@H](C(=O)N2CCCC2)N(C)C(=O)[C@H](C2CCCC2)N(C)C(=O)C2(CCCC2)NC(=O)[C@@H]2CCCN2C(=O)[C@H](CCc2ccc(C(F)(F)F)c(Cl)c2)NC(=O)CN(C)C(=O)[C@H](Cc2ccc(C)cc2)N(C)C(=O)[C@@H]2CCN2C(=O)[C@H](C)N(C)C1=O [Compound 1840] ([NMeL]I[NMeA][Aze][NMePhe(4-Me)][Sar][hPhe(3-Cl-4-CF3)]P[Ac5c][NMeGly(cPent)][NMeD]-Pyrrolidide; lactam N-11) | 20 to 50 nM | 1.2 nM |
